According to patent publication US10898539B2, “Process for the synchronization of ovulation for timed breeding without heat detection” (priority 2003, dated 2021):

Assays:
Type in all cases: in vivo, swine
postpartum sows [1] = test: Pregnancy rate after deslorelin treatment in sows, summary of Tables 2-5
Description: Approximately 170 postpartum sows were randomly divided into two equal groups comprised of controls and treated. Following weaning, the controls were detected for estrus and bred following the normal standard operating procedures for the farms on which they resided. The treated sows received a 50 mcg dose of deslorelin in SAIB at 96 hours post-weaning and were bred with a single insemination 28+/−2 hours later with no regard to estrus detection. The sows were examined for pregnancy by ultrasound at 21 days and slaughtered around 28 days post breeding. The entire reproductive tract was removed and corpora lutea and embryos were counted. Postpartum sows were randomly distributed into three different groups comprised of Controls, Treatment 1, and Treatment 2, with the exception of Site 3, which was divided into two groups, Control and Treatment 2. Control sows were detected for estrus following weaning, and bred following the normal standard operating procedures for the farms on which they resided. Treatment 1 sows were detected for estrus following weaning, and received a 50 mcg dose of deslorelin in the morning when standing and were bred by AI 4 hours later and again at 24+/−2 hours later. Treatment 2 sows received a 50 mcg dose of deslorelin in SAIB at 96 or 120 hours post-weaning and were bred with a single insemination 28+/−2 hours later with no regard to estrus detection. […]

postpartum sows [2] = test: Litter size after deslorelin treatment in postpartum sows at three farm sites (Example 4)
Description: Postpartum sows were randomly distributed into three different groups comprised of Controls, Treatment 1, and Treatment 2, with the exception of Site 3, which was divided into two groups, Control and Treatment 2. Control sows were detected for estrus following weaning, and bred following the normal standard operating procedures for the farms on which they resided. Treatment 1 sows were detected for estrus following weaning, and received a 50 mcg dose of deslorelin in the morning when standing and were bred by AI 4 hours later and again at 24+/−2 hours later. Treatment 2 sows received a 50 mcg dose of deslorelin in SAIB at 96 or 120 hours post-weaning and were bred with a single insemination 28+/−2 hours later with no regard to estrus detection.

mature postpartum sows = test: Intravulvar injection at estrus detection in mature postpartum sows, AI breeding (Example 2)
Description: Sows were assigned randomly in blocks of two to either control or to be injected intravulvar with 50 mcg of deslorelin in SAIB at the time of estrus detection for sows first detected in estrus in the a.m. and 12 hours later for those first detected in estrus in the p.m. Treated animals were bred AI upon detected estrus and again 24 hours later if still in estrus. Controls received a saline injection on first detected estrus behavior estrus detection and were bred according to the farm's normal procedures.

postpartum sows [3] = test: Single timed injection 96 hours post-weaning and single timed insemination without estrus detection in postpartum sows (Example 3); settings: 50 mcg at 96 hours post-weaning
Description: Approximately 170 postpartum sows were randomly divided into two equal groups comprised of controls and treated. Following weaning, the controls were detected for estrus and bred following the normal standard operating procedures for the farms on which they resided. The treated sows received a 50 mcg dose of deslorelin in SAIB at 96 hours post-weaning and were bred with a single insemination 28+/−2 hours later with no regard to estrus detection. The sows were examined for pregnancy by ultrasound at 21 days and slaughtered around 28 days post breeding. The entire reproductive tract was removed and corpora lutea and embryos were counted.

[4] = Site 1, Treatment 1: 50 mcg when standing in estrus, AI 4 hours later and again at 24+/-2 hours
[5] = Site 1, Treatment 2: 50 mcg in SAIB at 96 or 120 hours post-weaning, single insemination 28+/-2 hours later, no estrus detection
[6] = Site 2, Treatment 1: 50 mcg when standing in estrus, AI 4 hours later and again at 24+/-2 hours
[7] = Site 2, Treatment 2: 50 mcg in SAIB at 96 or 120 hours post-weaning, single insemination 28+/-2 hours later, no estrus detection
[8] = Site 3, Treatment 2: 50 mcg in SAIB at 96 or 120 hours post-weaning, single insemination 28+/-2 hours later, no estrus detection
[9] = 50 μg intravulvar at first estrus detection, AI, AI again if in estrus next day
[10] = slaughtered around 28 days post breeding

SMILES: CCNC(=O)[C@@H]1CCCN1C(=O)[C@H](CCCN=C(N)N)NC(=O)[C@H](CC(C)C)NC(=O)[C@@H](Cc1c[nH]c2ccccc12)NC(=O)[C@H](Cc1ccc(O)cc1)NC(=O)[C@H](CO)NC(=O)[C@H](Cc1c[nH]c2ccccc12)NC(=O)[C@H](Cc1cnc[nH]1)NC(=O)[C@@H]1CCC(=O)N1 [Deslorelin, deslorelin]
- pregnancy rates (in words) (postpartum sows [1]; Table 6): normal pregnancy rates
- Number Pregnant (postpartum sows [1]; Treatment 2 (timed injection, single timed insemination), 250 sows in group, data of Tables 2-5 summarized): 177
- % Pregnant (postpartum sows [1]; Treatment 2 (timed injection, single timed insemination), data of Tables 2-5 summarized): 70.80%
- Avg. Total Live Pigs (postpartum sows [2]; [4]): 11.03
- Avg. Total Pigs Born (postpartum sows [2]; [4]): 12.10
- Avg. Total Live Pigs (postpartum sows [2]; [5]): 11.24
- Avg. Total Pigs Born (postpartum sows [2]; [5]): 12.37
- Avg. Total Live Pigs (postpartum sows [2]; [6]): 10.25
- Avg. Total Pigs Born (postpartum sows [2]; [6]): 11.21
- Avg. Total Live Pigs (postpartum sows [2]; [7]): 10.02
- Avg. Total Pigs Born (postpartum sows [2]; [7]): 10.88
- Avg. Total Live Pigs (postpartum sows [2]; [8]): 10.27
- Avg. Total Pigs Born (postpartum sows [2]; [8]): 11.09
- litter sizes (in words) (postpartum sows [2]; Tables 3-5, regardless of estrus detection): normal litter sizes
- Length of Estrus (mature postpartum sows; [9]): 40.81 (n = 69) Hrs.
- Pregnancy Rate (mature postpartum sows; [9]): 91% (n = 75)
- pregnancy rates, Control versus Treated groups (in words) (mature postpartum sows; 50 mcg intravulvar at estrus detection): no significant difference
- Pregnancy Rate (postpartum sows [3]; single insemination 28+/-2 hours later, no estrus detection): 71%
- Sows Pregnant (postpartum sows [3]; single insemination 28+/-2 hours later, 84 sows in group): 60
- Embryo Survival (postpartum sows [3]; [10]): 64%
- Live Embryos (postpartum sows [3]; [10]): 13.4
